Laboratory results published in US6362369B1, “Phthalic acid diamide derivatives fluorine-containing aniline compounds as starting material, agricultural and horticultural insecticides, and a method for application of the insecticides” (Nihon Nohyaku Co., Ltd., priority 1997, dated 2002).

tested on: diamondback moth (Plutella xylostella); assay: Insecticidal effect on diamondback moth (Test Example 1); format: in vivo; conditions: diamondback moth; mortality judged by criterion of Test Example 1
Description: Insecticidal effect on diamondback moth (Plutella xylostella) Adult diamondback moths were released and allowed to oviposit on a Chinese cabbage seedling. […] After air-drying, it was allowed to stand in a room thermostated at 25° C. Six days after the immersion, the hatched insects were counted. The mortality was calculated according to the following equation and the insecticidal effect was judged according to the criterion shown below. The test was carried out with triplicate groups of 10 insects. [table]

| Structure (SMILES) | Insecticidal effect, Test Example 1 |
| --- | --- |
| CCOCCNC(=O)c1cccc(I)c1C(=O)Nc1ccc(C(F)(F)C(F)(F)F)cc1C [compound 984] | A (100) |
| C=CCNC(=O)c1cccc(I)c1C(=O)Nc1ccc(C(F)(F)C(F)(F)F)cc1C [compound 988] | A (100) |
| Cc1cc(C(F)(F)C(F)(F)F)ccc1NC(=O)c1c(I)cccc1C(=O)NC1CCCC1 [compound 992] | A (100) |
| Cc1cc(C(F)(F)C(F)(F)F)ccc1NC(=O)c1c(I)cccc1C(=O)NCC(C)C [compound 1006] | A (100) |
| Cc1cc(C(F)(F)C(F)(F)F)ccc1NC(=O)c1c(I)cccc1C(=O)NC1CC1 [compound 1025] | A (100) |
| Cc1cc(C(F)(F)C(F)(F)F)ccc1NC(=O)c1c(I)cccc1C(=O)NC(C)C(C)C (stereo not shown) [compound 1034] | A (100) |
| CCCNC(=O)c1cccc(I)c1C(=O)Nc1ccc(OC(F)(F)C(F)F)cc1C [compound 1059] | A (100) |
| CC(C)(C)NC(=O)c1ccccc1C(=O)Nc1ccc2c(c1)OC(F)(F)C(F)(F)O2 [compound 1065] | A (100) |
| Cc1cc(C(F)(F)C(F)(F)F)ccc1NC(=O)c1cccc(I)c1C(=O)N1CCCCC1 [compound 1082] | A (100) |
| Cc1cc(C(F)(F)C(F)(F)F)ccc1NC(=O)c1cccc(I)c1C(=O)N1CCC(C)CC1 [compound 1083] | A (100) |
| CCN(CC)C(=O)c1cccc([N+](=O)[O-])c1C(=O)Nc1ccc(OC(F)(F)C(F)F)cc1C [compound 1137] | A (100) |
| CCN(CC)C(=O)c1cccc([N+](=O)[O-])c1C(=O)Nc1ccc(OC(F)(F)F)cc1 [compound 1139] | A (100) |
| CCN(CC)C(=O)c1c(I)cccc1C(=O)Nc1ccc2oc(-c3ccc(C(F)(F)F)cc3)nc2c1 [compound 1175] | A (100) |
| CCN(CC)C(=O)c1c(I)cccc1C(=O)Nc1ccc2nc(-c3ccccc3C(F)(F)F)oc2c1 [compound 1178] | A (100) |
| CC(C)NC(=O)c1c(I)cccc1C(=O)Nc1ccc2nc(C(F)(F)C(F)(F)F)oc2c1 [compound 1180] | A (100) |
| CC(C)(C)NC(=O)c1c(I)cccc1C(=O)Nc1ccc2nc(C(F)(F)C(F)(F)F)oc2c1 [compound 1181] | A (100) |
| CCN(CC)C(=O)c1c(I)cccc1C(=O)Nc1ccc2nc(C(F)(F)C(F)(F)F)oc2c1 [compound 1182] | A (100) |
| CCN(CC)C(=O)c1c(OC(F)(F)F)cccc1C(=O)Nc1ccc(C(F)(C(F)(F)F)C(F)(F)F)cc1C [compound 1238] | A (100) |
| Cc1cc(OC(F)(F)F)ccc1NC(=O)c1cc(I)ccc1C(=O)NC(C)C [compound 1247] | C (89-80) |
| Cc1cc(OC(F)(F)C(F)F)ccc1NC(=O)c1cc(I)ccc1C(=O)NC(C)C [compound 1249] | A (100) |
| Cc1cc(OC(F)(F)F)ccc1NC(=O)c1ccc(F)c(Cl)c1C(=O)NC(C)(C)C [compound 1260] | A (100) |
| Cc1cc(OC(F)(F)F)ccc1NC(=O)c1ccc(F)c(F)c1C(=O)NC(C)C [compound 1283] | A (100) |
| Cc1cc(OC(F)(F)F)ccc1NC(=O)c1cc(F)c(F)cc1C(=O)NC(C)(C)C [compound 1288] | A (100) |
| Cc1cc(OC(=C(C(F)(F)F)C(F)(F)F)C(F)(F)C(F)(F)F)ccc1NC(=O)c1cccc(Cl)c1C(=O)NC(C)C [compound 1291] | A (100) |
| Cc1cc(C(F)(F)C(F)(F)F)ccc1NC(=O)c1cccc(Cl)c1C(=O)NCCc1ccccc1 [compound 1319] | A (100) |
| Cc1cc(C(F)(F)C(F)(F)F)ccc1NC(=O)c1c(Cl)cccc1C(=O)NC(C)c1ccccc1 (stereo not shown) [compound 1322] | A (100) |
| CCCONC(=O)c1c(Cl)cccc1C(=O)Nc1ccc(C(F)(F)C(F)(F)F)cc1C [compound 1327] | A (100) |
| CCCONC(=O)c1cccc(Cl)c1C(=O)Nc1ccc(C(F)(F)C(F)(F)F)cc1C [compound 1328] | A (100) |
| Cc1cc(C(F)(F)C(F)(F)F)ccc1NC(=O)c1c(Cl)cccc1C(=O)NCCCc1ccccc1 [compound 1332] | A (100) |

same assay, conditions: mortality judged according to the criterion shown in Test Example 1

| Structure (SMILES) | Insecticidal effect on diamondback moth (Test Example 1), judged grade |
| --- | --- |
| COC(=O)c1cccc(C(=O)NC(C)C)c1C(=O)Nc1ccc(Cl)cc1C [compound 802] | D (79-50) |
| CC(C)NC(=O)c1cccc(-c2ccccc2)c1C(=O)Nc1ccc(OC(F)(F)F)cc1 [compound 808] | A (100) |
| CC(C)N(C)C(=O)c1ccccc1C(=O)Nc1ccc(C(F)(F)F)cc1 [compound 824] | A (100) |
| Cc1cc(OC(F)F)ccc1NC(=O)c1cccc([N+](=O)[O-])c1C(=O)N(C)C(C)C [compound 825] | A (100) |
| Cc1cc(Cl)ccc1N(C)C(=O)c1ccccc1C(=O)NC(C)C [compound 827] | A (100) |
| CCCCNC(=O)c1c(C(=O)Nc2cc(Cl)ccc2C)cccc1[N+](=O)[O-] [compound 830] | C (89-80) |
| Cc1cc(OC(F)F)ccc1NC(=O)c1cccc([N+](=O)[O-])c1C(=O)NCC(C)C [compound 832] | A (100) |
| CCC(C)NC(=O)c1ccccc1C(=O)Nc1ccc(C(F)(F)F)cc1 (stereo not shown) [compound 835] | A (100) |
| CCC(C)NC(=O)c1cccc(Cl)c1C(=O)Nc1ccc(OC(F)F)cc1C (stereo not shown) [compound 837] | A (100) |
| CCC(CC)NC(=O)c1c(C(=O)Nc2ccc(OC(F)F)cc2C)cccc1[N+](=O)[O-] [compound 845] | A (100) |
| Cc1cc(OC(F)F)ccc1NC(=O)c1cccc([N+](=O)[O-])c1C(=O)NC(C)C(C)C (stereo not shown) [compound 846] | A (100) |
| O=C(Nc1ccc(C(F)(F)F)cc1)c1ccccc1C(=O)NC1CC1 [compound 848] | A (100) |
| Cc1ccc(Cl)cc1NC(=O)c1cccc([N+](=O)[O-])c1C(=O)NC1CCC1 [compound 854] | A (100) |
| Cc1ccc(F)cc1NC(=O)c1cccc([N+](=O)[O-])c1C(=O)NC1CCC1 [compound 855] | A (100) |
| Cc1ccc(Cl)cc1NC(=O)c1cccc([N+](=O)[O-])c1C(=O)NC1CCCCC1 [compound 859] | D (79-50) |
| Cc1ccc(F)cc1NC(=O)c1cccc([N+](=O)[O-])c1C(=O)NCC1CC1 [compound 860] | A (100) |
| Cc1ccc(F)cc1NC(=O)c1cccc([N+](=O)[O-])c1C(=O)NCCCl [compound 861] | A (100) |
| Cc1ccc(Cl)cc1NC(=O)c1ccccc1C(=O)NCC(F)(F)F [compound 864] | A (100) |

| Structure (SMILES) | Insecticidal effect on diamondback moth (Test Example 1), judged grade |
| --- | --- |
| C=CCNC(=O)c1ccccc1C(=O)Nc1ccc(C(F)(F)F)cc1 [compound 865] | A (100) |
| C=CCNC(=O)c1c(C(=O)Nc2cc(Cl)ccc2C)cccc1[N+](=O)[O-] [compound 866] | D (79-50) |
| C#CCNC(=O)c1c(C(=O)Nc2ccc(OC(F)F)cc2C)cccc1[N+](=O)[O-] [compound 870] | A (100) |
| COCCNC(=O)c1c(C(=O)Nc2cc(Cl)ccc2C)cccc1[N+](=O)[O-] [compound 871] | A (100) |
| CCOC(CNC(=O)c1c(C(=O)Nc2ccc(OC(F)F)cc2C)cccc1[N+](=O)[O-])OCC [compound 875] | A (100) |
| Cc1ccc(Cl)cc1NC(=O)c1cccc([N+](=O)[O-])c1C(=O)NC(C)c1ccccc1 (stereo not shown) [compound 878] | C (89-80) |
| Cc1cc(Br)ccc1NC(=O)c1cccc([N+](=O)[O-])c1C(=O)NCc1cccnc1 [compound 888] | D (79-50) |
| CC(C)NC(=O)c1cccc(F)c1C(=O)Nc1ccc(Oc2ccc(C(F)(F)F)cc2Cl)cc1F [compound 902] | A (100) |
| CC(C)NC(=O)c1cccc(Cl)c1C(=O)Nc1ccc(Oc2ccc(C(F)(F)F)cc2Cl)cc1F [compound 904] | A (100) |
| CC(C)NC(=O)c1cccc(Cl)c1C(=O)Nc1ccc(C=C(Cl)C(F)(F)F)cc1 [compound 912] | A (100) |
| CC(C)NC(=O)c1c(Cl)cccc1C(=O)Nc1ccc(C=C(Br)Br)cc1 [compound 913] | A (100) |
| CC(C)NC(=O)c1cccc(Cl)c1C(=O)Nc1ccc(C=C(Br)Br)cc1 [compound 914] | A (100) |
| CC(C)NC(=O)c1cccc(Cl)c1C(=O)Nc1ccc(C=C(Cl)Cl)cc1 [compound 916] | A (100) |
| CC(C)NC(=O)c1cccc(I)c1C(=O)Nc1ccc(C=C(Cl)C(F)(F)F)cc1 [compound 918] | A (100) |
| CCc1cc(I)ccc1NC(=O)c1cccc(I)c1C(=O)NC(C)C [compound 919] | A (100) |
| CCc1cc(I)ccc1NC(=O)c1c(I)cccc1C(=O)NC(C)C [compound 920] | A (100) |
| CCc1ccc(Cl)c(CC)c1NC(=O)c1cccc(Cl)c1C(=O)NC(C)C [compound 924] | A (100) |
